PMC10077475, “DG9-conjugated morpholino rescues phenotype in SMA mice by reaching the CNS via a subcutaneous administration” (JCI Insight, 2023)

Key:
severe SMA mouse model [1] = assay: Muscle pathology by H&E staining (myofiber size, centrally nucleated fibers); type: in vivo
Text: Atrophic musculature is a classical characteristic feature of SMA with diminished skeletal muscle fiber size. To determine the treatment effects on muscle pathology, we assessed the physiology and architecture of the myofibers of 2 affected muscle groups, the quadriceps and intercostal muscles, as well as the sparingly affected diaphragm at PD7 and PD30 ([42], [43]). We quantified the cross-sectional area (CSA), the minimal Feret’s diameter, and centrally nucleated fibers, a hallmark of pathological muscle degeneration/regeneration cycle, for at least 500 myofibers per muscle for each treatment using hematoxylin and eosin (H&E) staining at PD7 and PD30 (Figure 4, A and B, and Supplemental Figures 5 and 6). […] The effect of DG9-PMO persisted at PD30 (Supplemental Figure 6).
Cryosections (7 μm) of the quadriceps muscle, diaphragm, and intercostal muscle were stained with Meyer’s H&E reagents (Electron Microscopy Reagents) ([70]). For the centrally nucleated fibers and myofiber size, 500–800 were randomly selected per muscle per treatment. The CSA and minimal Feret’s diameter were quantified using ImageJ (NIH). All H&E analyses were performed in a blinded fashion.

severe SMA mouse model [2] = assay: Whole-body plethysmography, breathing function at PD7; type: in vivo; conditions: for respiratory parameters under hypoxia (11% O2): 40 mg/kg s.c. at PD0, PD7
Text: The majority of patients with SMA suffer from compromised breathing functions and rely on an external source of breathing support. To evaluate the effects of DG9-PMO treatment on breathing function, we performed whole-body plethysmography recordings at PD7 under normoxic (21% O2) and hypoxic (11% O2) conditions (Figure 3A). […] The NT mice on the other hand had slow, irregular breathing denoted by a higher coefficient of variation of frequency (CV, a measure of relative variability) and marked apneas (absence of airflow/pressure changes for a period equivalent to or greater than 2 complete respiratory cycles) (Figure 3, B and F).
Measurements were performed in whole-body, cylindrical, transparent, plexiglass plethysmographs (Validyne Engineering) that had 1 inflow and 2 outflow ports for the continuous delivery of fresh room air and removal of expired carbon dioxide ([75], [76]). […] The gas was mixed with gas mixer (GSM-3, CWE), delivered from compressed pure oxygen and pure nitrogen cannisters, being monitored using 0–200 mL/min gas regulators (Porter Instrument Company). […] For PD30, the plethysmograph was recorded at RT of around 22°C. Pressure changes were detected with a pressure transducer (DP 103; Validyne) and signal conditioner (CD-15; Validyne), recorded with data acquisition software (Axoscope) via analog-digital board (Digidata 1322A). […] VT and fR were measured with blood pressure settings using Labchart 8 (ADInstruments). Threshold levels for bursts were set, and bursts were then automatically detected so that frequency (calculated from cycle duration) and VT (calculated from maximal pressure minus minimal pressure) values were interpreted. […]
Respiratory parameters were calculated over an average of 1 minute of continuous plethysmography recordings. […]

[3] = system: neuromuscular junctions of SMA mice; assay: NMJ staining, innervation of quadriceps and intercostal muscles; type: in vivo, mouse; conditions: 40 mg/kg s.c. at PD0, quadriceps and intercostal muscles at PD30, 300–500 NMJs per group
Text: We assessed the NMJ architecture of the quadriceps and the intercostal muscles at PD30 to understand the phenotypic rescue following injections at PD0 (Figure 5A). […] Although there was no statistical significance, we observed upregulation of both atrogenes in the unconjugated PMO–treated mice and upregulation of only Atrogin-1 in MOE-treated mice in the quadriceps muscle at approximately PD30. […] We also evaluated the expressions of muscle specific kinase (MuSK) and acetylcholine receptor alpha (AChRα), which play a crucial role in NMJ formation and maintenance ([46]–[50]). […] The findings corroborate our hypothesis that DG9-PMO treatment rescues the crosstalk between the muscle and the neurons by improving muscle pathology and the characteristics of NMJs.
NMJ staining was carried out as previously described ([71]). Briefly, the quadriceps and the intercostal muscle were fixed in 4 % paraformaldehyde (PFA) for 2 hours. The muscles were washed quickly with PBS and blocked with 5% goat serum and 2 % Triton-X in PBS for 1 hour at RT. This was followed by overnight incubation at 4°C with the primary mouse monoclonal antibodies anti-neurofilament clone 2H3 (1:100) and […] (1:500) (DSHB). […] The synaptic area was quantified using ImageJ. […]

Compound	myofiber size at PD30 compared with DG9-PMO (severe SMA mouse model [1]; 40 mg/kg s.c. at PD0, all 3 tissue types)	respiratory parameters under hypoxia (11% O2) (severe SMA mouse model [2])	full innervation of peripheral synapses (NMJs) [3]	centrally nucleated fibers (severe SMA mouse model [1]; 40 mg/kg s.c. at PD0, PD7)	Feret's diameter and CSA of myofibers at PD7 compared with NT control (severe SMA mouse model [1]; 40 mg/kg s.c. at PD0, quadriceps, diaphragm, intercostal muscle)	respiratory phenotype under normoxic conditions (21% O2) (severe SMA mouse model [2]; 40 mg/kg s.c. at PD0, PD7, majority of the mice)
unconjugated PMO: PMO targeting ISS-N1 intron 7 (5′ TCACTTTCATAATGCTGG 3′), purchased from Gene Tools LLC (all phosphorodiamidate morpholino (PMO)) [reference compound]	significantly smaller myofibers	slow, weak, and irregular breathing when compared with the Hets	40%–50%	–	–	–
CC(=O)N[C@@H](Cc1ccc(O)cc1)C(=O)N[C@@H](C)C(=O)N[C@H](CCCNC(=N)N)C(=O)N[C@H](C(=O)N[C@@H](CCCNC(=N)N)C(=O)N[C@@H](CCCNC(=N)N)C(=O)N[C@H](CCCNC(=N)N)C(=O)NCC(=O)N1CCC[C@H]1C(=O)N[C@@H](CCCNC(=N)N)C(=O)NCC(=O)N[C@@H](Cc1ccc(O)cc1)C(=O)N[C@@H](C)C(=O)N[C@H](CCCNC(=N)N)C(=O)N[C@H](C(=O)N[C@@H](CCCNC(=N)N)C(=O)N[C@@H](CCCNC(=N)N)C(=O)N[C@H](CCCNC(=N)N)C(=O)NCC(=O)N1CCC[C@H]1C(=O)N[C@@H](CCCNC(=N)N)C(=O)N[C@H](CCCNC(=N)N)C(=O)N1C[C@@H](COP(=O)(N(C)C)N2C[C@@H](COP(=O)(N(C)C)N3C[C@@H](COP(=O)(N(C)C)N4C[C@@H](COP(=O)(N(C)C)N5C[C@@H](COP(=O)(N(C)C)N6C[C@@H](COP(=O)(N(C)C)N7C[C@@H](COP(=O)(N(C)C)N8C[C@@H](COP(=O)(N(C)C)N9C[C@@H](COP(=O)(N(C)C)N%10C[C@@H](COP(=O)(N(C)C)N%11C[C@@H](COP(=O)(N(C)C)N%12C[C@@H](COP(=O)(N(C)C)N%13C[C@@H](COP(=O)(N(C)C)N%14C[C@@H](COP(=O)(N(C)C)N%15C[C@@H](COP(=O)(N(C)C)N%16C[C@@H](COP(=O)(N(C)C)N%17C[C@@H](COP(=O)(N(C)C)N%18C[C@@H](COP(=O)(N(C)C)N%19CCC(C(N)=O)CC%19)O[C@@H](n%19cc(C)c(=O)[nH]c%19=O)C%18)O[C@@H](n%18ccc(N)nc%18=O)C%17)O[C@@H](n%17cnc%18c(N)ncnc%18%17)C%16)O[C@@H](n%16ccc(N)nc%16=O)C%15)O[C@@H](n%15cc(C)c(=O)[nH]c%15=O)C%14)O[C@@H](n%14cc(C)c(=O)[nH]c%14=O)C%13)O[C@@H](n%13cc(C)c(=O)[nH]c%13=O)C%12)O[C@@H](n%12ccc(N)nc%12=O)C%11)O[C@@H](n%11cnc%12c(N)ncnc%12%11)C%10)O[C@@H](n%10cc(C)c(=O)[nH]c%10=O)C9)O[C@@H](n9cnc%10c(N)ncnc%109)C8)O[C@@H](n8cnc9c(N)ncnc98)C7)O[C@@H](n7cc(C)c(=O)[nH]c7=O)C6)O[C@@H](n6cnc7c(=O)[nH]c(N)nc76)C5)O[C@@H](n5ccc(N)nc5=O)C4)O[C@@H](n4cc(C)c(=O)[nH]c4=O)C3)O[C@@H](n3cnc4c(=O)[nH]c(N)nc43)C2)O[C@@H](n2cnc3c(=O)[nH]c(N)nc32)C1)C(C)C)C(C)C (some centres unmarked) [DG9-PMO]	–	increase in the respiratory parameters fR, VE, and VT relative to normoxia	more than 60%	significant decrease in the percentage of centrally nucleated fibers	significantly larger in all 3 muscle groups	did not exhibit any respiratory phenotype
